Values of other authors, collected in patent US20100284933A1, “Biomarkers of Multiple Sclerosis” (Biogen Idec MA Inc., priority 2006, published 2010).

Legend:
PBRs = PBRs (Homo sapiens, UniProt P30536); conditions: background statement
CBRs = conditions: background statement

PBRs, sequence (P30536 whole entry): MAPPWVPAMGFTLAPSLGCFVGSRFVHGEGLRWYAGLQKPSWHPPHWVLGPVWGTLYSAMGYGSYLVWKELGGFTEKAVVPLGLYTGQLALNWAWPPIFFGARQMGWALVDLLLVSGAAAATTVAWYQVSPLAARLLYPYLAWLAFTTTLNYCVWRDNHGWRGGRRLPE

Compound	affinity for PBRs (PBRs)	affinity for CBRs (CBRs)
CCC(C)N(C)C(=O)c1cc2ccccc2c(-c2ccccc2Cl)n1 (stereo not shown) [PK 11195]	high affinity	negligible affinity
CN1C(=O)CN=C(c2ccc(Cl)cc2)c2cc(Cl)ccc21 [Ro 5-4864, 4′-chlorodiazepam]	high affinity	negligible affinity
